Experimental data reported in patent US12178223B2, “Insect life cycle interruption agent(LCIA) formulations and their manufacture and use” (priority 2020, dated 2024).
Several values for one entry are separate records, joined by “and”; a condition that tells them apart may be missing. Equal values may be shown once. Marks after values point to notes of the source that are not given here.

Key:
[1] = system: young fly larvae (stage 1); assay: Insecticidal activity in manure of hens fed Cyromazine products (Example 14); format: in vivo; conditions: Cyromazine in feed 5 PPM
Method: (§1) Twenty four Lohman laying hens were placed in conventional layer cages (2 birds per cage) and divided into 6 experimental groups of 4 birds per group.
(§2) The hens were fed for three weeks with laying hens feed (17.5% protein, no AGP) supplemented with a Cyromazine product as summarized in Table 12.
After three weeks of feeding according to the experimental groups of example 3, manure was collected from each group of hens. The manure was frozen for 48 hours to destroy any insects present and then thawed.
For each experimental group, 5 cups containing 100 g thawed manure were prepared (70-75% moisture). Each cup represents a group replicate.
Thirty young fly larvae (stage 1) were placed in each cup and incubated in an insectarium for 10 days. After ten days the pupae/larvae/flies were counted. Analysis of variance was done using a One Way Anova test and the comparison of means was done with Tukey-Kramer test, significance level-α=0.05.

[2] = Cyromazine residue in eggs (Example 15); parameters: species or system Lohman laying hens; conditions: female, Lohman, chicken, in vivo
Excerpt: as §1, §2
After four weeks of feeding according to the experimental groups of example 13, eggs were collected.
For each treatment 16 eggs were collected (4 eggs from each hen). The contents of the 4 eggs (without the shell) of each bird were pooled in one container marked to indicate the treatment. Each container was a sample. A total of 4 tests were performed for each treatment. The containers were packed in a temperature-controlled pack that was sent for Cyromazine analysis to Eurofines laboratory in Germany.
Samples are weighed and one or more samples is spiked with an internal standard.
Acetonitrile is added and the sample is vortexed. Petroleum ether is added and a liquid/liquid extraction is performed in a shaker followed by centrifugation. An aliquot of the acetonitrile phase is removed and reduced in volume to near dryness then resolved by adding water and methanol. The mixture is vortexed then filtered by membrane filter and analyzed—Liquid chromatographic determination with LC-MS/MS. Quantitation is via comparison with samples spiked with an internal standard.

In the case of `Nc1nc(N)nc(NC2CC2)n1` [NGNEC, Cyromazine], the “Dead larvae and pupas %” value [1] is reported as 0%, the Normal pupa % [1] is reported as 0^b % and the “Survival rate = (No of flies + normal pupas)/30*100” value [1] is reported as 0% and 0^b %. The Flies % ([1]; 10 days) was 0^b %, the concentration at 4 weeks [2] was 88 ng/g and the “Cyromazine in eggs, % of Larvadex 0.5% group” value ([2]; 4 weeks) was 102%.
